This is an account of results in US20070293475A1, “ARYL AND HETEROARYL TETRAHYDROBENZAZEPINE DERIVATIVES AND THEIR USE FOR TREATING GLAUCOMA” (ALCON MAN[…]., priority 2006, published 2007).

pEC50: −log10 of the molar value.

Experiment [1] has as its target T1, human serotonin receptor clone 5-HT2C (Homo sapiens, UniProt P28335).
T1 construct: expressed in transfected cells; host or cells: CHO-K1 cells stably expressing aequorin and Galpha16
T1 sequence (P28335 33-458): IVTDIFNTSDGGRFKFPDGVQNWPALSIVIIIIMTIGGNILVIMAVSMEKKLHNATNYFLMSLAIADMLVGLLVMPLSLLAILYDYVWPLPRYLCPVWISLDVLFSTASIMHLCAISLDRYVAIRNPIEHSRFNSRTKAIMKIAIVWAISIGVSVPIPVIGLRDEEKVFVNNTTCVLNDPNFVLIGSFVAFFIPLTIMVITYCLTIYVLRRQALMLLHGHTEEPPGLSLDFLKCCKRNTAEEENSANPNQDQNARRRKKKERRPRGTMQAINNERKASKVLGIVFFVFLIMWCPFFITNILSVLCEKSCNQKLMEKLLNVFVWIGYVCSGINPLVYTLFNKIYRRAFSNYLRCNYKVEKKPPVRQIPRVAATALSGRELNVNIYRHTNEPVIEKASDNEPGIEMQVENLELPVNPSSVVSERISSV
The experiment in a line: h5-HT2 functional assay, CHO-K1 aequorin luminescence (5-HT2C). The format is cell-based. To be noted: for Emax: CHO-K1, relative to the response of 5-HT, read-out: h5-HT 2C (Emax); for pEC50: CHO-K1 cells, aequorin, Gα16, read-out: h5-HT 2C EC50. How it is done:
(§1) Functional response at the 5-HT2 receptor subtypes was determined using CHO-K1 cells stably expressing mitochondrially-targeted bioluminescent aequorin, Gα16, and one of either human serotonin receptor clone 5-HT2A, 5-HT2B , or 5-HT2C. Prior to testing, cells were loaded in suspension with coelenterazine for 4-16 hours and directly injected onto different concentrations of the test compound. Light emitted from the cells was measured 20-30 seconds following receptor activation. A luminometer (Hamamatsu, FDSS-6000) was used to record luminescence in response to the test compound. The mean response signal at each of 8-11 different concentrations was integrated to provide an estimation of receptor activation, expressed as the EC50 value. The efficacy of the response (Emax) at the 5-HT2A and 5-HT2B receptors is expressed relative to the response of α-methyl-5-HT under the same assay conditions while the efficacy at 5-HT2C is expressed relative to the response of 5-HT.

For the next experiment, the target named is T2, r5-HT2A (Rattus norvegicus, UniProt P14842).
T2 construct: endogenous in cells; host or cells: A7r5 rat vascular smooth muscle cells
The experiment in a line: r5-HT2A functional assay: FLIPR, intracellular calcium mobilization in A7r5 cells. To be noted: for pEC50: FLIPR, rat A7r5 vascular smooth muscle cells, read-out: r5-HT 2A EC50; for Emax: percentage of maximum 5-HT-induced response, A7r5 cells, read-out: r5-HT 2A (Emax). The format is cell-based. How it is done:
r5-HT2A Functional Assay: FLIPR
Rat Vascular Smooth Muscle Cells
(§2) The receptor-mediated mobilization of intracellular calcium ([Ca^2+]i) was studied using the Fluorescence Imaging Plate Reader (FLIPR) instrument. Rat vascular smooth muscle cells, A7r5, were grown in a normal media of DMEM/10% FBS and 10 μg/ml gentamycin. Confluent cell monolayers were trypsinized, pelleted, and re-suspended in normal media. Cells were seeded in a 50 μL volume at a density of 20,000 cells per well in a black wall, 96-well tissue culture plate and grown for 2 days. On the day of the experiment, one vial of FLIPR Calcium Assay Kit dye was re-suspended in 50 ml of a FLIPR buffer consisting of Hank's Balanced Salt Solution (HBSS), 20 mM HEPES, and 2.5 mM probenecid, pH 7.4. Cells were loaded with the calcium-sensitive dye by addition of an equal volume (50 μl) to each well of the 96-well plate and incubated with dye for 1 h at 23° C. Typically, test compounds were stored at […] in 50% DMSO/50% Ethanol solvent. Compounds were diluted 1:50 in 20% DMSO/20% Ethanol. For dose-response experiments, compounds were diluted 1:50 in FLIPR buffer and serially diluted 1:10 to give a 5- or 8-point dose-response curve.
(§3) At the beginning of an experimental run, a signal test was performed to check the basal fluorescence signal from the dye-loaded cells and the uniformity of the signal across the plate. The basal fluorescence was adjusted between 8000-12000 counts by modifying the exposure time, the camera F-stop, or the laser power. The instrument settings for a typical assay were as follows: laser power 0.3-0.6 W, camera F-stop F/2, and exposure time 0.4 sec. An aliquot (25 μl) of the test compound was added to the existing 100 μl dye-loaded cells at a dispensing speed of 50 μl/sec. Fluorescence data were collected in real-time at 1.0 sec intervals for the first 60 sec and at 6.0 sec intervals for an additional 120 sec. Responses were measured as peak fluorescence intensity minus basal and where appropriate were expressed as a percentage of a maximum 5-HT-induced response.

For experiment [2], the target named is T3, human serotonin receptor clone 5-HT2A (Homo sapiens, UniProt P28223).
T3 construct: expressed in transfected cells; host or cells: CHO-K1 cells stably expressing aequorin and Galpha16
The experiment can be described thus: h5-HT2 functional assay, CHO-K1 aequorin luminescence (5-HT2A). The class given is cell-based. Conditions: for Emax: CHO-K1, relative to the response of α-methyl-5-HT, read-out: h5-HT 2A (Emax); for pEC50: CHO-K1 cells, aequorin, Gα16, read-out: h5-HT 2A EC50. As for the experimental part:
as §1

Experiment [3] concerns the target T4, human serotonin receptor clone 5-HT2B (Homo sapiens, UniProt P41595).
T4 construct: expressed in transfected cells; host or cells: CHO-K1 cells stably expressing aequorin and Galpha16
The experiment can be described thus: h5-HT2 functional assay, CHO-K1 aequorin luminescence (5-HT2B). The format is cell-based. Conditions: for Emax: CHO-K1, relative to the response of α-methyl-5-HT, read-out: h5-HT 2B (Emax); for pEC50: CHO-K1 cells, aequorin, Gα16, read-out: h5-HT 2B EC50. How it is done: as §1

Experiment [4] concerns the target T5, recombinant rat 5-HT2C receptor (Rattus norvegicus, UniProt P08909).
T5 construct: expressed in transfected cells; host or cells: SR3T3 cells
T5 sequence (P08909 33-460): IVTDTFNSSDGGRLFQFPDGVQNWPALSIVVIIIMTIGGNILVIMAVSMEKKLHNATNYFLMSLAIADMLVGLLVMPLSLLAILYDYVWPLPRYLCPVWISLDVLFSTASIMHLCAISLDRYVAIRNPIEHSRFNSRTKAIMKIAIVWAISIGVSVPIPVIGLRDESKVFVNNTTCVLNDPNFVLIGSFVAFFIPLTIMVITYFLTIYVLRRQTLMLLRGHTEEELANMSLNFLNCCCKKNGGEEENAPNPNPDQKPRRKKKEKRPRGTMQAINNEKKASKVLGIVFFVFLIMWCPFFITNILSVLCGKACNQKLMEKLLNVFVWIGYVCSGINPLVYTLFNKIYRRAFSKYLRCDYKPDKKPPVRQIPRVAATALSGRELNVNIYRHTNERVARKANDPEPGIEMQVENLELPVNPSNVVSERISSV
The experiment in a line: r5-HT2C functional assay: FLIPR, SR3T3 cells. The format is cell-based. Conditions: for pEC50: FLIPR, SR3T3 cells expressing recombinant rat 5-HT2C, read-out: r5-HT 2C EC50; for Emax: SR-3T3, percentage of maximum 5-HT-induced response, SR3T3 cells, read-out: r5-HT 2C (Emax). As for the experimental part: as §2, §3
r5-HT2C Functional Assay: FLIPR
This assay were performed as for the r5-HT2A receptor above, except that SR3T3 cells expressing the recombinant rat 5-HT2C receptor were utilized.

The test system of experiment [5] is Lasered (Hypertensive) Eyes of Conscious Cynomolgus Monkeys. The experiment can be described thus: Acute IOP response in lasered (hypertensive) eyes of conscious cynomolgus monkeys. The class given is in vivo. Conditions: for IOP change (mmHg): value in parentheses. As for the experimental part: Acute IOP Response in Lasered (Hypertensive) Eyes of Conscious Cynomolgus Monkeys
Intraocular pressure (IOP) can be determined with an Alcon Pneumatonometer after light corneal anesthesia with 0.1% proparacaine. Eyes are washed with saline after each measurement. After a baseline IOP measurement, test compound is instilled in one 30 μL aliquot to the right eyes only of nine cynomolgus monkeys. Vehicle is instilled in the right eyes of six is additional animals. Subsequent IOP measurements are taken at 1, 3, and 6 hours.
The above method was used to determine the IOP lowering efficacy of Compound 1. All eyes were pretreated with 1 drop of 0.5% proparacaine to address discomfort.

[6] abbreviates: dose 100 μg topical, 1 hr, baseline IOP 38.3 mmHg.
[7] abbreviates: dose 100 μg topical, 3 hr, baseline IOP 38.3 mmHg.
[8] abbreviates: dose 100 μg topical, 6 hr, baseline IOP 38.3 mmHg.
Setting [9] is: dose 150 μg topical, 1 hr, baseline IOP 40.4 mmHg.
The mark [10] stands for this setting: dose 150 μg topical, 3 hr, baseline IOP 40.4 mmHg.
Where [11] appears, read: dose 150 μg topical, 6 hr, baseline IOP 40.4 mmHg.

T4 sequence (P41595 whole entry): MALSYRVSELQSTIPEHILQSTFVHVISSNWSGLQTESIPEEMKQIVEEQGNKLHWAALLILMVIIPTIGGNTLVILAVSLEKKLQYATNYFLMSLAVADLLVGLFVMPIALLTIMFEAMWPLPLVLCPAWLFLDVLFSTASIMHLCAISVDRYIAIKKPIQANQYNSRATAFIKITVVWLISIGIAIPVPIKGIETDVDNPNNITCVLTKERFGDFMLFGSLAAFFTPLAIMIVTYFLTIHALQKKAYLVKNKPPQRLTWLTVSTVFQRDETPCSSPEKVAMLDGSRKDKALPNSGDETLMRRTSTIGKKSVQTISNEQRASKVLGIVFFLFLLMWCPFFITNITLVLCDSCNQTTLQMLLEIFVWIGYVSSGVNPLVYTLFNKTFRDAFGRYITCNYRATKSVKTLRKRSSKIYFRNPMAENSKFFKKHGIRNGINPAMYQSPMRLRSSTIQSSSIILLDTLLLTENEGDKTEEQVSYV
T3 sequence (P28223 whole entry): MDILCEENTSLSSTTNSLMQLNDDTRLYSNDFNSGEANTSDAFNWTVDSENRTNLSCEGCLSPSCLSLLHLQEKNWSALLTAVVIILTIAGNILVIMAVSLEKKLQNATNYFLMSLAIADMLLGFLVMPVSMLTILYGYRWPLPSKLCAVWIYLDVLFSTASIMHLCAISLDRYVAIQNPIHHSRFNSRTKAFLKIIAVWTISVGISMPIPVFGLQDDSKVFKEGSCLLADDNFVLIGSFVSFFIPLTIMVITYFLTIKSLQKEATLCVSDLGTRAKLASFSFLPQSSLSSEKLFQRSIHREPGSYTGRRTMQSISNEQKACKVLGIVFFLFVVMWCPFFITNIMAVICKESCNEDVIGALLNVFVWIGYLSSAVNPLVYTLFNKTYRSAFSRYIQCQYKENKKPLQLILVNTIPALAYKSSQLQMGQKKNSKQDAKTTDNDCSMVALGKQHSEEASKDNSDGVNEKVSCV
T2 sequence (P14842 whole entry): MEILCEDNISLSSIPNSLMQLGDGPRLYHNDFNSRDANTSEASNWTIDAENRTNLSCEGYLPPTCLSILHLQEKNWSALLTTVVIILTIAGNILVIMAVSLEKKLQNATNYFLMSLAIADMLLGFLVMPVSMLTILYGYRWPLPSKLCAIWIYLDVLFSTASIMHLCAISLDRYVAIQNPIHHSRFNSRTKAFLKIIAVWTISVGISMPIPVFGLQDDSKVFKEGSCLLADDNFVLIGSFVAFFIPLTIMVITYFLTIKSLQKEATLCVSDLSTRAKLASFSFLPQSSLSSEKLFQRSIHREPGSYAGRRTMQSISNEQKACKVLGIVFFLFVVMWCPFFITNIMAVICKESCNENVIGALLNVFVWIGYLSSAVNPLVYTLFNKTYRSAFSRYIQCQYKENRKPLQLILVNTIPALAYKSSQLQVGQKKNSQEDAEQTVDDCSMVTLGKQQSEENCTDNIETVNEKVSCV

With `Oc1cccc(Cc2ccc3c(c2)CCNCC3)c1` [Example 2, 3-(2,3,4,5-Tetrahydro-1H-benzo[d]azepin-7-ylmethyl)-phenol], the Emax in experiment [1] was determined as 109%; in experiment [2] it was 98%; in experiment [3], 35%; in experiment [4], 100%. Besides, the pEC50 is 8.06 in experiment [1]; under 6.00 at r5-HT2A; 7.51 in experiment [2]; 5.91 in experiment [3]; 6.92 in experiment [4].
For the molecule `COc1cccc(Cc2ccc3c(c2)CCNCC3)c1` [Example 1, 7-(3-Methoxy-benzyl)-2,3,4,5-tetrahydro-1H-benzo[d]azepine], the maximum response (Emax) in experiment [1] came out at 105%; on r5-HT2A it was 39%; in experiment [2], 102%; in experiment [3], 87%; in experiment [4], 100%. The pEC50 in experiment [1] was 8.96; at r5-HT2A, 6.41; in experiment [2], 8.82; in experiment [3] it was 6.41; in experiment [4], 7.09. In addition, the “% IOP change” value is −16.5% in experiment [5] (setting [6]); −33.1% in experiment [5] (setting [7]); −42.5% in experiment [5] (setting [8]); −15.6% in experiment [5] (setting [9]); −29.5% in experiment [5] (setting [10]); −37.8% in experiment [5] (setting [11]). Also, the “IOP change (mmHg)” value in experiment [5] (setting [6]) is recorded as “(6.6) mmHg”; in experiment [5] (setting [7]) it was “(13.1) mmHg”; in experiment [5] (setting [8]), “(16.8) mmHg”; in experiment [5] (setting [9]) it was “(6.1) mmHg”; in experiment [5] (setting [10]), “(12.3) mmHg”; in experiment [5] (setting [11]), “(15.6) mmHg”.
As to `COc1cc(Cc2ccc3c(c2)CCNCC3)cc(OC)c1` [Example 3, 7-(3,5-Dimethoxy-benzyl)-2,3,4,5-tetrahydro-1H-benzo[d]azepine], the Emax in experiment [1] is 105%; in experiment [2], 104%; in experiment [3], 6%; in experiment [4], 70%. In addition, the pEC50 in experiment [1] was 7.70; on r5-HT2A it was under 5.00; in experiment [2] it was 7.77; in experiment [3] it was under 5.00; in experiment [4], 6.20.
As for `Oc1cccc(OCc2ccc3c(c2)CCNCC3)c1` [Example 7, 3-(2,3,4,5-tetrahydro-1H-3-benzazepin-7-ylmethoxy)phenol], on r5-HT2A, the pEC50 was 6.36 and the Emax was 40%. For the same molecule, in experiment [4], the pEC50 was 7.19 and the Emax worked out at 92%.
Regarding `COc1cccc(COc2cc3c(cc2C)CCNCC3)c1` [Example 8, 7-[(3-methoxybenzyl)oxy]-8-methyl-2,3,4,5-tetrahydro-1H-3-benzazepine], the Emax in experiment [1] was found to be 101%; on r5-HT2A, 48%; in experiment [2] it was 102%; in experiment [3], 63%; in experiment [4] it was 102%. Besides, the pEC50 in experiment [1] is 8.35; at r5-HT2A it was 5.72; in experiment [2], 8.62; in experiment [3], 6.64; in experiment [4], 6.60.
As for `COc1cccc(OCc2ccc3c(c2)CCNCC3)c1` [Example 6, 7-[(3-methoxyphenoxy)methyl]-2,3,4,5-tetrahydro-1H-3-benzazepine], the Emax turned out to be 107% in experiment [1]; 35% on r5-HT2A; 105% in experiment [2]; 61% in experiment [3]; 89% in experiment [4]. Besides, the pEC50 in experiment [1] was 8.41; on r5-HT2A it was 7.16; in experiment [2], 9.40; in experiment [3], 6.38; in experiment [4] it was 7.04.

A word on the Emax: it is the greatest response seen or fitted, relative to the assay's reference. The pEC50 is the EC50 on a negative log10 scale, so that one unit is a factor of ten.
